Measured values as given in ChEMBL document CHEMBL1135684, “Identification of arodyn, a novel acetylated dynorphin A-(1-11) analogue, as a kappa opioid receptor antagonist” (J Med Chem, 2002).
Where a SMILES comes first, the peptide text is derived from it. [ ]: non-standard residue; d: D form.

Legend:
[1] = molecular target: Kappa-type opioid receptor (Homo sapiens, UniProt P41145); experiment: Binding affinity towards Opioid receptor kappa 1 using [3H]diprenorphine as radioligand expressed on chinese hamster ovary (CHO) cells; assay type: cell-based
Chain of Kappa-type opioid receptor (P41145 whole entry): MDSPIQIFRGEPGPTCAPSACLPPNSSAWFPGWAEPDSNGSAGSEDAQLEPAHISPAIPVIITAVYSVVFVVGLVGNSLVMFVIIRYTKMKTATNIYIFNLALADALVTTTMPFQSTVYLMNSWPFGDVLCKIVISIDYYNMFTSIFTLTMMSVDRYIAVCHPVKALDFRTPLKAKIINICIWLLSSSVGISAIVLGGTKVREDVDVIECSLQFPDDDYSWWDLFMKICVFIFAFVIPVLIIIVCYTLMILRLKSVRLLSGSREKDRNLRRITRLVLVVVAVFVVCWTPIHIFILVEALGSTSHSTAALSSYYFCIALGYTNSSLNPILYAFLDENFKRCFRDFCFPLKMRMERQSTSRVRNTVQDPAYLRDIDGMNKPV

Mu-type opioid receptor = Mu-type opioid receptor (Homo sapiens, UniProt P35372); experiment: Binding affinity towards Opioid receptor mu 1 using [3H]DAMGO as radioligand
Chain of Mu-type opioid receptor (P35372 whole entry): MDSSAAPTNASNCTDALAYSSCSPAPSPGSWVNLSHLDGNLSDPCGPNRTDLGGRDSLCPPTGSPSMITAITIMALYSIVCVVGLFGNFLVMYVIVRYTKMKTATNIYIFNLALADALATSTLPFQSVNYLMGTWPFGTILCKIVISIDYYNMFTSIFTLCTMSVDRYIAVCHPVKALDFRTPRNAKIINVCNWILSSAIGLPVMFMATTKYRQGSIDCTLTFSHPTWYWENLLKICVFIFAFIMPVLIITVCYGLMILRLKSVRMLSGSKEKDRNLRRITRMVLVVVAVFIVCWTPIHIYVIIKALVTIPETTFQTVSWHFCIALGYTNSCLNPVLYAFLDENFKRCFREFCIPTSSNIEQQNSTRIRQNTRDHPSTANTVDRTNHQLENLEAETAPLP

[2] = molecular target: Delta-type opioid receptor (Homo sapiens, UniProt P41143); experiment: Binding affinity towards Opioid receptor delta 1 using [3H]DPDPE as radioligand; set-up: species or system Cricetulus griseus
Chain of Delta-type opioid receptor (P41143 whole entry): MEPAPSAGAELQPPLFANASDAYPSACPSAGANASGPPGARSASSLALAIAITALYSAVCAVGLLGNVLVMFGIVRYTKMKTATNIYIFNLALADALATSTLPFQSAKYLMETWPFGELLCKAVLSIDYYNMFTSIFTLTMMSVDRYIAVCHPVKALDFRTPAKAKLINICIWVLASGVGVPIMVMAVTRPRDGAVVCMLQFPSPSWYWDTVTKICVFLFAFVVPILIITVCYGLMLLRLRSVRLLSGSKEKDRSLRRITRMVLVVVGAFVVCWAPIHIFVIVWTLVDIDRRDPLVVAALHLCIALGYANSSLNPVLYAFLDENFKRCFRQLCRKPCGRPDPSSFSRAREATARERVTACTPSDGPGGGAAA

| Compound | Ki [1] [nM] | Ki (Mu-type opioid receptor) [nM] | Ki [2] [nM] |
| --- | --- | --- | --- |
| CSCC[C@H](NC(=O)[C@H](Cc1ccccc1)NC(=O)[C@H](CCCN=C(N)N)NC(C)=O)C(=O)N[C@@H](Cc1c[nH]c2ccccc12)C(=O)N[C@@H](CCSC)C(=O)N[C@@H](CCCN=C(N)N)C(=O)N[C@@H](CCCN=C(N)N)C(=O)N[C@H](C)C(=O)N[C@@H](CCCN=C(N)N)C(=O)N1CCC[C@H]1C(=O)N[C@@H](CCCCN)C(N)=O [EXTACET] | 6.6 | 1.12 | – |
| CC(=O)N[C@@H](Cc1ccccc1)C(=O)N[C@@H](Cc1ccccc1)C(=O)N[C@@H](Cc1ccccc1)C(=O)N[C@@H](CCCNC(=N)N)C(=O)N[C@@H](CC(C)C)C(=O)N[C@@H](CCCNC(=N)N)C(=O)N[C@@H](CCCNC(=N)N)C(=O)N[C@H](C)C(=O)N[C@@H](CCCNC(=N)N)C(=O)N1CCC[C@H]1C(=O)N[C@@H](CCCCN)C(N)=O (Ac-FFFRLRR[dA]RPK-NH2) | – | – | 5830 |
